Experimental data: US20070219178A1, “PREVENTIVE OR THERAPEUTIC AGENTS FOR MULTIPLE SCLEROSIS” (Eisai Co., Ltd., priority 2003, published 2007)

Tests used:
[1] = target: T1, Porcine kidney-derived DPP-IV (Sus scrofa, UniProt P22411); test: DPPIV-inhibiting activity assay; format: biochemical; conditions: porcine kidney DPP-IV 10 mU/ml, Gly-Pro-p-nitroanilide 0.33 mM, 20 minutes, absorbance at 405 nm
T1 construct: Porcine kidney-derived DPP-IV was dissolved in a reaction buffer; from tissue; host or cells: porcine kidney
T1 sequence (P22411 whole entry): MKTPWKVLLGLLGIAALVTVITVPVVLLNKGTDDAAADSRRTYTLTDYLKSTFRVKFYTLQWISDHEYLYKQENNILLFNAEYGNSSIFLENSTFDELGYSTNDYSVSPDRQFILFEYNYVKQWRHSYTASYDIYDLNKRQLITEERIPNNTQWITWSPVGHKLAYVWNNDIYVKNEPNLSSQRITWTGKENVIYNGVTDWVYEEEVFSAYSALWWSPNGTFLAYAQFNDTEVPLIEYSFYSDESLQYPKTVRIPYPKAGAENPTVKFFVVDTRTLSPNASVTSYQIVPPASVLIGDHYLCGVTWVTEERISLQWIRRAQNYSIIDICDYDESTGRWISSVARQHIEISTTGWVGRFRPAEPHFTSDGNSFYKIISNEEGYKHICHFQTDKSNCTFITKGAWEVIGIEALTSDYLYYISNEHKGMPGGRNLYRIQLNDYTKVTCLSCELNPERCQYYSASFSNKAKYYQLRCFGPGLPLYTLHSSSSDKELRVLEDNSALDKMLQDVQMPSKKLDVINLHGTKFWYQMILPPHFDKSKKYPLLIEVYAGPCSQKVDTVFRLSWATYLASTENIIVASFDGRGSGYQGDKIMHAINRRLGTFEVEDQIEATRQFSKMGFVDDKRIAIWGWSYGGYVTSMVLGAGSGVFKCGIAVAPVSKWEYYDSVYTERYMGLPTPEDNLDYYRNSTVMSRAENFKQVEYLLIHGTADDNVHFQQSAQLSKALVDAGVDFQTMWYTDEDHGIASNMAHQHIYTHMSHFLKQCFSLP
Protocol: DPPIV-Inhibiting Activity Assay
Porcine kidney-derived DPP-IV was dissolved in a reaction buffer (50 mM Tris-HCl (pH 7.4)/0.1% BSA) at a concentration of 10 mU/ml. After 110 μl of this solution had been combined with 15 μl of an agent, the mixture was incubated at room temperature for 20 minutes. 25 μl of 2 mM Gly-Pro-p-nitroanilide was added (to a final concentration of 0.33 mM) to the solution to initiate the enzyme reaction. The reaction time was 20 minutes. 25 μl of IN phosphoric acid solution was added to the reaction solution to quench the reaction.

[2] = test system: experimental allergic encephalomyelitis (EAE) model; test: Experimental allergic encephalomyelitis (EAE) model, EAE scores; format: in vivo, Male C57BL/6 mice; conditions: MOG peptide-immunized mice; oral, 30 mg/kg in 0.5% MC, 10 ml/kg/administration, twice a day from post-immunization day 7; FIG. 1 and 2

| Compound | IC50 [1] [nM] | effect on development of EAE symptoms compared to control group (MC solution) [2] |
| --- | --- | --- |
| Methyl 2-[7-(2-butynyl)-1-methyl-6-oxo-8-(piperazin-1-yl)-6,7-dihydro-1H-purin-2-yloxy]phenylacetate trifluoroacetate [Example 4] | 211 | – |
| CC#CCn1c(N2CCNCC2)nc2c1c(=O)n(C)c(=O)n2C [Compound 1X, 7-(2-butynyl)-1,3-dimethyl-8-(piperazin-1-yl)-3,7-dihydropurine-2,6-dione] | – | definite suppressing effects |
| CC#CCn1c(N2CCNCC2)nc2nc(Oc3ccccc3C(N)=O)n(C)c(=O)c21 [Example 122, 2-[7-(2-Butynyl)-1-methyl-6-oxo-8-(piperazin-1-yl)-6,7-dihydro-1H-purin-2-yloxy]benzamide] | – | definite suppressing effects |
| CC#CCn1c(N2CCCC(N)C2)nc2cnn(C)c(=O)c21.O=C(O)C(F)(F)F (stereo not shown) [Example 120, 2-(3-Aminopiperidin-1-yl)-3-(2-butynyl)-5-methyl-3,5-dihydroimidazo[4,5-d]pyridazin-4-one trifluoroacetate] | – | definite suppressing effects |
